Experimental data published in PubChem BioAssay (NCI).
Where “and” joins values, the source holds several entries; their conditions need not be identical. Equal entries are not always repeated.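 Five compound concentrations were applied to cells in 96-well plates for 48 hours; endpoints were derived by simple linear interpolation of the resulting dose-response curve. Abbreviation: GI50, concentration required for 50% inhibition of growth. TGI is the concentration that stops growth completely.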 Where a SMILES comes first, the peptide text is derived from it.

How the values were obtained:
Experiment in all cases: NCI anticancer screen, dose series, 48 h
ACHN renal = test system: ACHN renal
HCT-15 colon = test system: HCT-15 colon
HOP-62 NSCLC = test system: HOP-62 NSCLC
LOX IMVI melanoma = test system: LOX IMVI melanoma
NCI-H226 lung = test system: NCI-H226 lung
NCI-H23 lung = test system: NCI-H23 lung
RPMI-8226 leukemia = test system: RPMI-8226 leukemia
SF-539 CNS = test system: SF-539 CNS
UO-31 renal = test system: UO-31 renal
TK-10 renal = test system: TK-10 renal

| Structure (SMILES) | TGI (ACHN renal) [µM] | GI50 (HCT-15 colon) [µM] | TGI (HCT-15 colon) | GI50 (HOP-62 NSCLC) [µM] | TGI (HOP-62 NSCLC) | TGI (LOX IMVI melanoma) | TGI (NCI-H226 lung) | GI50 (NCI-H23 lung) [µM] | TGI (NCI-H23 lung) | GI50 (RPMI-8226 leukemia) [µM] | TGI (RPMI-8226 leukemia) [µM] | GI50 (SF-539 CNS) [µM] | TGI (SF-539 CNS) | GI50 (UO-31 renal) [µM] | TGI (UO-31 renal) | TGI (TK-10 renal) [µM] | GI50 (LOX IMVI melanoma) [µM] | GI50 (NCI-H226 lung) |
| --- | --- | --- | --- | --- | --- | --- | --- | --- | --- | --- | --- | --- | --- | --- | --- | --- | --- | --- |
| CC(C)CC(NC(=O)C(CC(C)C)NC(=O)C(Cc1cnc[nH]1)NC(=O)C(C)NC(=O)C(NC(=O)C(C)NC(=O)C(Cc1c[nH]c2ccccc12)NC(=O)C(CCC(=O)O)NC(=O)C(N)Cc1ccccc1)C(C)C)C(N)=O (stereo not given) (H-FEWAVAHLL-NH2; configuration not given here) | > 100 | > 100 | > 100 µM | > 100 | > 100 µM | > 12.5 µM | > 12.5 µM | > 100 | > 100 µM | > 100 | > 100 | > 100 | > 100 µM | 70.9 | > 100 µM | – | – | – |
| CC(C)NCC(O)COC(=O)c1cccs1 (stereo not given) | > 100 | – | > 100 µM | – | > 100 µM | > 100 µM | – | – | > 100 µM | – | > 100 | – | – | – | > 100 µM | > 100 | – | – |
| N=C1N(c2ccccc2)C(=O)C23CCCC2C13N1CCOCC1 (stereo not given) | > 100 | – | > 100 µM | – | > 100 µM | – | > 100 µM | – | > 100 µM | – | > 100 | – | > 100 µM | – | > 100 µM | – | – | – |
| CC(=O)O[C@H]1C(=O)O[C@@H]2C[C@H]3C(C)=CC(=O)[C@@H](O)[C@]3(C)[C@H]3[C@@]4(O)OC[C@]32[C@@H]1[C@@H](C)[C@H]4O | 0.394 | 0.0399 | 0.738 µM and 1.03 µM | < 0.0122 | 0.07 µM and 0.314 µM | 0.0642 µM and 0.442 µM | 0.0775 µM and 0.166 µM | < 0.0141 | 0.0904 µM and 0.453 µM | < 0.0142 | 0.0989 | < 0.01 | 0.0151 µM and 0.0663 µM | 0.0958 | 1.21 µM and 4.45 µM | – | < 0.01 | < 0.0205 µM and 0.0366 µM |
| Cc1cc(C)c(O)c(Cc2cccc(Cc3cc(C)cc(C)c3O)c2O)c1 | > 100 | – | > 100 µM | – | > 100 µM | > 100 µM | – | – | > 100 µM | – | > 100 | – | > 100 µM | – | > 100 µM | > 100 | – | – |
| CC1(C)OC(C(N)=O)=C(C(N)=O)O1 | > 100 | – | > 100 µM | – | > 100 µM | > 100 µM | > 100 µM | – | > 100 µM | – | – | – | > 100 µM | – | > 100 µM | > 100 | – | – |
| Cc1ccc([N+](=O)[O-])cc1NC(=O)C(=O)Cc1occc(=O)c1O | > 100 | – | > 100 µM | – | > 100 µM | > 100 µM | > 100 µM | – | – | – | > 100 | – | > 100 µM | – | > 100 µM | > 100 | – | – |
| C#CCOCn1cnc2c(=S)nc[nH]c21 | > 100 | – | > 100 µM | – | > 100 µM | > 100 µM | > 100 µM | – | > 100 µM | – | > 100 | – | – | – | > 100 µM | > 100 | – | – |
| Oc1ccc(CNCc2ccccc2)c2cccnc12 | 22.9 | – | > 100 µM | – | > 51.2 µM | > 100 µM | 66.7 µM | – | > 100 µM | – | 0.768 | – | – | – | > 24.4 µM | – | – | – |
| O=C1C(=O)N(C(=O)c2ccc(Cl)c(Cl)c2)c2ccc(Cl)cc21 | > 100 | – | – | – | – | > 100 µM | > 100 µM | – | > 100 µM | – | > 100 | – | > 100 µM | – | > 100 µM | > 100 | – | – |
